target: LRRK2 Ser935 phosphorylation in SH-SY5Y cells over-expressing recombinant full length LRRK2 (Homo sapiens (Human), UniProt Q5S007); assay: Recombinant cellular LRRK2 AlphaScreen assay; type: cell-based; settings: 60 minutes, read-out: Recombinant cellular LRRK2 alphaScreen assay (pIC50) (converted)
From the text: To determine the activity of compounds against LRRK2 kinase activity in cells, the observed LRRK2 kinase-dependent modulation of LRRK2 Ser 935 phosphorylation (Dzamko et al., 2010, Biochem. J. 430: 405-413) was utilized to develop a quantitative 384 well plate-based immunoassay of LRRK2 Ser935 phosphorylation in the human neuroblastoma cell line SH-SY5Y, engineered to over-express recombinant full length LRRK2 protein.
A BacMam virus expressing full length recombinant LRRK2 was purchased from Invitrogen and amplified by inoculation of SF-9 cells at MOI 0.3 for 4-5 days in Sf-900 III SFM medium supplemented with 3% fetal bovine serum. Infected cell cultures were then centrifuged at 2000 g for 20 minutes, viral supernatant titer determined by anti-gp64 plaque assay and stored at 4° C.
Affinity-purified anti-phospho LRRK2 Ser935 sheep polyclonal antibody (Dzamko et al., 2010, Biochem. J. 430: 405-413) was biotinylated by standard methods (PerkinElmer). Anti-LRRK2 rabbit polyclonal antibody was purchased from Novus Biologicals. AlphaScreen Protein A IgG Kit (including acceptor and donor beads) was purchased from Perkin Elmer.
SH-SY5Y cells were grown in DMEM/F12 medium with 10% dialysed fetal bovine serum and harvested by treatment with 0.5% trypsin-EDTA for 5 minutes at 37° C. followed by centrifugation at 1000 rpm for 4 minutes. The cell pellet was resuspended in Opti-MEM reduced serum media (Invitrogen) at 200,000 cells/ml and mixed with the BacMam LRRK2 virus at M01=50. 50 μl cell solutions were then dispensed to each well of a 384-well plate and incubated at 37° C., 5% CO2 for 24 hours.
Serial dilutions of test compounds were prepared in Opti-MEM reduced serum media (Invitrogen) and 5.6 ul transferred from compound plate to cell assay plate to achieve a top final assay concentration of 10 uM. DMSO was used in certain wells as controls. Cells were incubated at 37° C., 5% CO2 for 60 minutes. The medium was then removed and cells lysed by addition of 20 ul cell lysis buffer (Cell Signaling Technology) and incubation at 4° C. for 20 minutes. 10 ul of antibody/acceptor bead mix [( 1/1000 biotinylated-pS935 LRRK2 antibody, 1/1000 total-LRRK2 antibody, 1/100 Acceptor beads in AlphaScreen detection buffer (25 mM Hepes (pH 7.4), 0.5% Triton X-100, 1 mg/ml Dextran 500 and 0.1% BSA)] was then added to each well and plates incubated for 2 hours at ambient temperature in the dark. 10 μl of donor beads solution (1/33.3 donor beads in AlphaScreen detection buffer) was then added to each well. Following incubation for a further 2 hours at ambient temperature in the dark, plates were read on an EnVision™ plate reader at emission 520-620 nm with excitation 680 nm. Dose response curve data was based on sigmoidal dose-response model.

LRRK2 Ser935 phosphorylation in SH-SY5Y cells over-expressing recombinant full length LRRK2, sequence (Q5S007 whole entry): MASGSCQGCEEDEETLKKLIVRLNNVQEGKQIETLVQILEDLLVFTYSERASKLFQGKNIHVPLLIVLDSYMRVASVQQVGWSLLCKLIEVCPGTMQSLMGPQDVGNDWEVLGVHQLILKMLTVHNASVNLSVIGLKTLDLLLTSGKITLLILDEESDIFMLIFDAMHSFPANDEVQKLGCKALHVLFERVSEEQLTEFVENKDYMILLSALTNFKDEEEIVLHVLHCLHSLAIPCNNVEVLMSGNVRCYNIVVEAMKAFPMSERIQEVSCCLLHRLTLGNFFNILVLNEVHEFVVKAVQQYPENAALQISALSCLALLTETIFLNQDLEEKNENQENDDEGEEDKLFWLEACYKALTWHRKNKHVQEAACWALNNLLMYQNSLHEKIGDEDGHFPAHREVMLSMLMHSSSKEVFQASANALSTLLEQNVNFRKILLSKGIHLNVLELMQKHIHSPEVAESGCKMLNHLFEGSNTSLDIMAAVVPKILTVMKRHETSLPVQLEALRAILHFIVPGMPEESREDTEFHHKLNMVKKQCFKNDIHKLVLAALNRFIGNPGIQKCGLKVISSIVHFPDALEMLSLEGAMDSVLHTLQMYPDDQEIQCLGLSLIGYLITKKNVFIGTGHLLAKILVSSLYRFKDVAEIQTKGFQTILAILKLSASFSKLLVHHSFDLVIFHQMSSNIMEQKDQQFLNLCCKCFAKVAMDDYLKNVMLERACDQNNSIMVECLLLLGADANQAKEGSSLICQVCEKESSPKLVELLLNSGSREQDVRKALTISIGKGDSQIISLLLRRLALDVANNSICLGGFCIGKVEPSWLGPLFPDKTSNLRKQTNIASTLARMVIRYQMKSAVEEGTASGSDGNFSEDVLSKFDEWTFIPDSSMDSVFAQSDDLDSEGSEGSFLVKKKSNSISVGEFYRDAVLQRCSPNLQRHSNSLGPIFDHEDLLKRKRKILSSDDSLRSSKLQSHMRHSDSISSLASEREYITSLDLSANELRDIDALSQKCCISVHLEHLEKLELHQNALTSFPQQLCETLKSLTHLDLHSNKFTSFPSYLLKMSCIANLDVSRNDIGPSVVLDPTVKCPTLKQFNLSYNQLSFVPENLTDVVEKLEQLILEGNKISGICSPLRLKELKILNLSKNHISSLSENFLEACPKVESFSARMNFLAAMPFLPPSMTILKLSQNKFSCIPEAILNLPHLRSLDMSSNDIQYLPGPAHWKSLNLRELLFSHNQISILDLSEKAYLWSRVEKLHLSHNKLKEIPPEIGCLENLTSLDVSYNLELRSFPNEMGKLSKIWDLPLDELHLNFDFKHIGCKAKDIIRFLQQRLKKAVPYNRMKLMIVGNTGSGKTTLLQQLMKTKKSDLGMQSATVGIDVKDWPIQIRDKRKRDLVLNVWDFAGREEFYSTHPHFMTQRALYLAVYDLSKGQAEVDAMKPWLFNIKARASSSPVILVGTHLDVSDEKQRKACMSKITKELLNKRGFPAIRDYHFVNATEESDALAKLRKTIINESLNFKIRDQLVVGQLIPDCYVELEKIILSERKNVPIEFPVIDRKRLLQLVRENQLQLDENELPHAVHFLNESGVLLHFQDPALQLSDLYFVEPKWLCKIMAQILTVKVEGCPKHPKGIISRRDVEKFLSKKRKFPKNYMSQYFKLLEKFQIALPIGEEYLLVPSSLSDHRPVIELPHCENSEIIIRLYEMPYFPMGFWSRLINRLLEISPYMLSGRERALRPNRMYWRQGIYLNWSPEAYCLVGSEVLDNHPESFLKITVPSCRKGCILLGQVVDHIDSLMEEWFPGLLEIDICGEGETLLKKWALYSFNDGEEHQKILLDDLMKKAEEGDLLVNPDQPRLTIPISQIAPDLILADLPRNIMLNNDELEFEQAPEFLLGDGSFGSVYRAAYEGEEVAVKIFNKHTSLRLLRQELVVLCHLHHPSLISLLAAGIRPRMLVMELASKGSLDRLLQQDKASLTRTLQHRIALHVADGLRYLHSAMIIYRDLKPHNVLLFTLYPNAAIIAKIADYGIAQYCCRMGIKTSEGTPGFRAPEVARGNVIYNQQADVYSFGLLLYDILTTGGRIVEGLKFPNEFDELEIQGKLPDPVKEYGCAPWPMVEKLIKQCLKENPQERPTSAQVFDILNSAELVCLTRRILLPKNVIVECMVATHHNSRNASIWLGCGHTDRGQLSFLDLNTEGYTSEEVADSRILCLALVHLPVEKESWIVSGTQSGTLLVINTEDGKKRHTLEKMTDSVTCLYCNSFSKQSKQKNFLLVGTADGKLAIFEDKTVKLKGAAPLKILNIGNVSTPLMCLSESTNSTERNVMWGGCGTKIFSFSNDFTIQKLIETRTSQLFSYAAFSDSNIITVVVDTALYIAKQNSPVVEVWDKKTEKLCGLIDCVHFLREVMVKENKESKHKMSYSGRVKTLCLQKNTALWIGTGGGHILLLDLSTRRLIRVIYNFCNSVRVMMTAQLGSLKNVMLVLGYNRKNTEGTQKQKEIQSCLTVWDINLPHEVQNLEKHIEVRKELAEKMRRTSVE

`CNC(=O)[C@H]1CN(c2cc(-n3ncc4cc(C)c(C5CCN(C6COC6)CC5F)cc43)ncn2)CCO1` (single isomer, unassigned) [Example E35] and `CNC(=O)[C@@H]1CN(c2cc(-n3ncc4cc(C)c(C5CCN(C6COC6)CC5F)cc43)ncn2)CCO1` (single isomer, unassigned) [Example E34] cannot be ordered by IC50: at most 0.1 µM for the first, at most 0.1 µM for the second.

`Cc1nc(N2CC(OCCO)C2)cc(-n2ncc3cc(C)c([C@H]4CCN(C)C[C@H]4F)cc32)n1` (single isomer, unassigned) [Example E132, (cis)-2-((1-(6-(6-(3-Fluoro-1-methylpiperidin-4-yl)-5-methyl-1H-indazol-1-yl)-2-methylpyrimidin-4-yl)azetidin-3-yl)oxy)ethanol] and `Cc1nc(N2CC[C@H](O)C2)cc(-n2ncc3cc(C)c(C4CCN(C)CC4F)cc32)n1` (single isomer, unassigned) [Example E128] cannot be ordered by IC50: at most 0.1 µM for the first, at most 0.1 µM for the second.

`Cc1cc2cnn(-c3cc(N4CCOCC4)nc(C#N)n3)c2cc1C1CCN(C)CC1(F)F` (single isomer, unassigned) [Example E9, 4-(6-(3,3-Difluoro-1-methylpiperidin-4-yl)-5-methyl-1H-indazol-1-yl)-6-morpholinopyrimidine-2-carbonitrile] and `Cc1cc2cnn(-c3cc(N4CCOCC4)nc(OC(C)C)n3)c2cc1C1CCN(C2COC2)CC1(F)F` (single isomer, unassigned) [Example E25, 4-(6-(6-(3,3-Difluoro-1-(oxetan-3-yl)piperidin-4-yl)-5-methyl-1H-indazol-1-yl)-2-isopropoxypyrimidin-4-yl)morpholine] cannot be ordered by IC50: over 10 µM for the first, over 10 µM for the second.

`COc1nc(N2CC(O)C2)cc(-n2ncc3cc(C)c(C4CN(C)CCO4)cc32)n1` (single isomer, unassigned) [Example E229, 1-(2-Methoxy-6-(5-methyl-6-(4-methylmorpholin-2-yl)-1H-indazol-1-yl)pyrimidin-4-yl)azetidin-3-ol] and `Cc1nc(N2CC(O)C2)cc(-n2ncc3cc(C)c(C4CN(C)CCO4)cc32)n1` (single isomer, unassigned) [Example E228, 1-(2-M ethyl-6-(5-methyl-6-(4-methylmorpholin-2-yl)-1H-indazol-1-yl)pyrimidin-4-yl)azetidin-3-ol] cannot be ordered by IC50: over 10 µM for the first, over 10 µM for the second.

`Cc1nc(N2CCO[C@@H](CO)C2)cc(-n2ncc3cc(C)c(C4CCOCC4F)cc32)n1` (single isomer, unassigned) [Example E250] and `Cc1nc(N2CCOC(C(C)O)C2)cc(-n2ncc3cc(C)c(C4CCN(C5COC5)CC4)cc32)n1` (single isomer, unassigned) [Example E268, 1-(4-(2-Methyl-6-(5-methyl-6-(1-(oxetan-3-yl)piperidin-4-yl)-1H-indazol-1-yl)pyrimidin-4-yl)morpholin-2-yl)ethanol] cannot be ordered by IC50: at most 0.1 µM for the first, at most 0.1 µM for the second.

`CNC(=O)[C@H]1CN(c2cc(-n3ncc4cc(C)c(C5CCN(CCOC)CC5F)cc43)ncn2)CCO1` (single isomer, unassigned) [Example E29] and `CNC(=O)[C@@H]1CN(c2cc(-n3ncc4cc(C)c(C5CCN(CCOC)CC5F)cc43)ncn2)CCO1` (single isomer, unassigned) [Example E30] cannot be ordered by IC50: at most 0.1 µM for the first, at most 0.1 µM for the second.

Going from `COc1nc(N2CC(O)C2)cc(-n2ncc3cc(C)c(C4CCN(C)C(=O)C4)cc32)n1` (single isomer, unassigned) [Example E87, 4-(1-(6-(3-Hydroxyazetidin-1-yl)-2-methoxypyrimidin-4-yl)-5-methyl-1H-indazol-6-yl)-1-methylpiperidin-2-one] to `Cc1nc(-n2ncc3cc(C)c(C4CCN(C5COC5)CC4F)cc32)cc([C@H]2C[C@@H](O)C2)n1` (single isomer, unassigned) [Example E44, (cis)-(1s,3s)-3-(6-(6-(3-Fluoro-1-(oxetan-3-yl)piperidin-4-yl)-5-methyl-1H-indazol-1-yl)-2-methylpyrimidin-4-yl)cyclobutanol], the IC50 falls from over 10 µM to at most 0.1 µM.

From patent US10975081B2, “Substituted fused pyrazole compounds and their use as LRRK2 inhibitors” (GlaxoSmithKline Intellectual Property Development Limited, priority 2015, dated 2021)
